Measured values taken from patent US9718828B2 (MERCK SHARP & DOHME CORP., priority 2011, dated 2017).

The compounds below were run against hBTK (full-length BTK, 6HIS-tag cleaved) (Homo sapiens (Human), UniProt Q06187) (assay: BTK enzymatic activity, LANCE TR-FRET assay (Assay Method C)). Conditions: LANCE TR-FRET, 50 pM hBTK, 25 μM ATP; class 100-1000 is given as ≧100 nM-<1 μM; read-out: IC50 Btk activity values - Assay Method C.
Chain of hBTK (full-length BTK, 6HIS-tag cleaved) (Q06187 whole entry): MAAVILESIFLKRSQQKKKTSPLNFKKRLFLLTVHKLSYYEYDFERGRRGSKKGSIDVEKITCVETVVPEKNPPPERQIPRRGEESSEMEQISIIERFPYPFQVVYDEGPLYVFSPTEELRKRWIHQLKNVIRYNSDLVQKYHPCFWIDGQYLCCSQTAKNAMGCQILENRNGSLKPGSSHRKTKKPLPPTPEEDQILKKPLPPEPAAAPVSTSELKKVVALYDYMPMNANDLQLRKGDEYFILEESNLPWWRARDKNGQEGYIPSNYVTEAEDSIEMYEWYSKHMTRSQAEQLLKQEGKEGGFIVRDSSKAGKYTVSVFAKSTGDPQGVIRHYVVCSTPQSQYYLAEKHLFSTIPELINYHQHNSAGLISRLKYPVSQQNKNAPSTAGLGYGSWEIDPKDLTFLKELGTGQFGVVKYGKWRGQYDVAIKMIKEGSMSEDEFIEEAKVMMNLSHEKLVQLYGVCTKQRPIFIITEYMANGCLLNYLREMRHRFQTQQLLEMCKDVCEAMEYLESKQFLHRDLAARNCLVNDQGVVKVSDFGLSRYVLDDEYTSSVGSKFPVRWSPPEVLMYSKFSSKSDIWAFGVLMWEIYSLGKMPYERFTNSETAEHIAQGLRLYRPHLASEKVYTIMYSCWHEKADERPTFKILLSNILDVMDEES
Type: biochemical
With `Nc1nccn2c([C@@H]3CCCN(C(=O)c4cnsc4)C3)nc(-c3ccc(C(=O)Nc4cc(C(F)(F)F)ccn4)cc3)c12` [Example 333, 4-{8-amino-3-[(3R)-1-(isothiazol-4-ylcarbonyl)piperidin-3-yl]imidazo[1,5-a]pyrazin-1-yl}-N-[4-(trifluoromethyl)pyridin-2-yl]benzamide] the IC50 was under 10 nM.
`COCC1(C(=O)N2CCC[C@@H](c3nc(-c4ccc(C(=O)Nc5cc(C(F)(F)F)ccn5)cc4)c4c(N)nccn34)C2)CC1` [Example 334, 4-{8-amino-3-[(3R)-1-{[1-(methoxymethyl)cyclopropyl]carbonyl}piperidin-3-yl]imidazo[1,5-a]pyrazin-1-yl}-N-[4-(trifluoromethyl)pyridin-2-yl]benzamide] was tested, and the IC50 was under 10 nM.
Compound `N#CC1(C(=O)N2CCC[C@@H](c3nc(-c4ccc(C(=O)Nc5cc(C(F)(F)F)ccn5)cc4)c4c(N)nccn34)C2)CC1` [Example 335, 4-(8-amino-3-{(3R)-1-[(1-cyanocyclopropyl)carbonyl]piperidin-3-yl}imidazo[1,5-a]pyrazin-1-yl)-N-[4-(trifluoromethyl)pyridin-2-yl]benzamide] has an IC50 of under 10 nM.
For `Nc1nccn2c([C@@H]3CCCN(C(=O)c4cnccn4)C3)nc(-c3ccc(C(=O)Nc4cc(C(F)(F)F)ccn4)cc3)c12` [Example 336, 4-{8-amino-3-[(3R)-1-(pyrazin-2-ylcarbonyl)piperidin-3-yl]imidazo[1,5-a]pyrazin-1-yl}-N-[4-(trifluoromethyl)pyridin-2-yl]benzamide], the IC50 was under 10 nM.
`Nc1nccn2c([C@@H]3CCCN(C(=O)[C@@H]4CC(F)(F)CN4)C3)nc(-c3ccc(C(=O)Nc4cc(C(F)(F)F)ccn4)cc3)c12` [Example 337, 4-{8-amino-3-[(3R)-1-(4,4-difluoro-L-prolyl)piperidin-3-yl]imidazo[1,5-a]pyrazin-1-yl}-N-[4-(trifluoromethyl)pyridin-2-yl]benzamide] gave an IC50 of under 10 nM.
In the case of `CC1(CN2CCC[C@@H](c3nc(-c4ccc(C(=O)Nc5cc(C(F)(F)F)ccn5)cc4)c4c(N)nccn34)C2)COC1` [Example 338, 4-(8-amino-3-{(3R)-[(3-methyloxetan-3-yl)methyl]piperidin-3-yl}imidazo[1,5-a]pyrazin-1-yl)-N-[4-(trifluoromethyl)pyridin-2-yl]benzamide], the IC50 is reported as under 10 nM.
`CCOCC(=O)N1CCC[C@@H](c2nc(-c3ccc(C(=O)Nc4cc(C(F)(F)F)ccn4)cc3)c3c(N)nccn23)C1` [Example 339, 4-{8-amino-3-[(3R)-1-(ethoxyacetyl)piperidin-3-yl]imidazo[1,5-a]pyrazin-1-yl}-N-[4-(trifluoromethyl)pyridin-2-yl]benzamide] gave an IC50 of under 10 nM.
Work on `COCC(=O)N1CCC[C@@H](c2nc(-c3ccc(C(=O)Nc4cc(C(F)(F)F)ccn4)cc3)c3c(N)nccn23)C1` [Example 340, 4-{8-amino-3-[(3R)-1-(methoxyacetyl)piperidin-3-yl]imidazo[1,5-a]pyrazin-1-yl}-N-[4-(trifluoromethyl)pyridin-2-yl]benzamide] yielded an IC50 of under 10 nM.
Work on `CN1CCC[C@H]1C(=O)N1CCC[C@@H](c2nc(-c3ccc(C(=O)Nc4cc(C(F)(F)F)ccn4)cc3)c3c(N)nccn23)C1` [Example 341, 4-{8-amino-3-[(3R)-1-(1-methyl-L-prolyl)piperidin-3-yl]imidazo[1,5-a]pyrazin-1-yl}-N-[4-(trifluoromethyl)pyridin-2-yl]benzamide] yielded an IC50 of under 10 nM.
`Nc1nccn2c([C@@H]3CCCN(C(=O)C4(O)CC4)C3)nc(-c3ccc(C(=O)Nc4cc(C(F)(F)F)ccn4)cc3)c12` [Example 342, 4-(8-amino-3-{(3R)-1-[(1-hydroxycyclopropyl)carbonyl]piperidin-3-yl}imidazo[1,5-a]pyrazin-1-yl)-N-[4-(trifluoromethyl)pyridin-2-yl]benzamide] gave an IC50 of under 10 nM.
For `CCC(O)C(=O)N1CCC[C@@H](c2nc(-c3ccc(C(=O)Nc4cc(C(F)(F)F)ccn4)cc3)c3c(N)nccn23)C1` (stereo partly drawn) [Example 343, 4-{8-amino-3-[(3R)-1-(2-hydroxybutanoyl)piperidin-3-yl]imidazo[1,5-a]pyrazin-1-yl}-N-[4-(trifluoromethyl)pyridin-2-yl]benzamide], the IC50 was under 10 nM.
`Nc1nccn2c([C@@H]3CCCN(C(=O)C4CC4(F)F)C3)nc(-c3ccc(C(=O)Nc4cc(C(F)(F)F)ccn4)cc3)c12` (stereo partly drawn) [Example 344, 4-(8-amino-3-{(3R)-1-[(2,2-difluorocyclopropyl)carbonyl]piperidin-3-yl}imidazo[1,5-a]pyrazin-1-yl)-N-[4-(trifluoromethyl)pyridin-2-yl]benzamide] showed an IC50 of under 10 nM.
Work on `C[C@H](O)C(=O)N1CCC[C@@H](c2nc(-c3ccc(C(=O)Nc4cc(C(F)(F)F)ccn4)cc3)c3c(N)nccn23)C1` [Example 345, 4-(8-amino-3-{(3R)-1-[(2S)-2-hydroxypropanoyl]piperidin-3-yl}imidazo[1,5-a]pyrazin-1-yl)-N-[4-(trifluoromethyl)pyridin-2-yl]benzamide] yielded an IC50 of under 10 nM.
In the case of `C[C@@H](O)C(=O)N1CCC[C@@H](c2nc(-c3ccc(C(=O)Nc4cc(C(F)(F)F)ccn4)cc3)c3c(N)nccn23)C1` [Example 346, 4-(8-amino-3-{(3R)-1-[(2R)-2-hydroxypropanoyl]piperidin-3-yl}imidazo[1,5-a]pyrazin-1-yl)-N-[4-(trifluoromethyl)pyridin-2-yl]benzamide], the IC50 is reported as under 10 nM.
Compound `CN(C)CC(=O)N1CCC[C@@H](c2nc(-c3ccc(C(=O)Nc4cc(C(F)(F)F)ccn4)cc3)c3c(N)nccn23)C1` [Example 347, 4-{8-amino-3-[(3R)-1-(N,N-dimethylglycyl)piperidin-3-yl]imidazo[1,5-a]pyrazin-1-yl}-N-[4-(trifluoromethyl)pyridin-2-yl]benzamide] has an IC50 of under 10 nM.
`CN1CC[C@@H](C(=O)N2CCC[C@@H](c3nc(-c4ccc(C(=O)Nc5cc(C(F)(F)F)ccn5)cc4)c4c(N)nccn34)C2)C1` [Example 348, 4-(8-amino-3-[(3R)-1-{[(3R)-1-methylpyrrolidin-3-yl]carbonyl}piperidin-3-yl]imidazo[1,5-a]pyrazin-1-yl}-N-[4-(trifluoromethyl)pyridin-2-yl]benzamide] was tested, and the IC50 was under 10 nM.
With `CS(=O)(=O)CC(=O)N1CCC[C@@H](c2nc(-c3ccc(C(=O)Nc4cc(C(F)(F)F)ccn4)cc3)c3c(N)nccn23)C1` [Example 349, 4-(8-amino-3-{(3R)-1-[(methylsulfonyl)acetyl]piperidin-3-yl}imidazo[1,5-a]pyrazin-1-yl)-N-[4-(trifluoromethyl)pyridin-2-yl]benzamide] the IC50 was under 10 nM.
`CC1(C(=O)N2CCC[C@@H](c3nc(-c4ccc(C(=O)Nc5cscn5)cc4)c4c(N)nccn34)C2)COC1` [Example 350, 4-(8-amino-3-{(3R)-1-[(3-methyloxetan-3-yl)carbonyl]piperidin-3-yl}imidazo[1,5-a]pyrazin-1-yl)-N-1,3-thiazol-4-ylbenzamide] gave an IC50 of 10 to 100 nM.
`CC1(C(=O)N2CCC[C@@H](c3nc(-c4ccc(C(=O)Nc5ccc(F)cn5)cc4)c4c(N)nccn34)C2)COC1` [Example 351, 4-(8-amino-3-{(3R)-1-[(3-methyloxetan-3-yl)carbonyl]piperidin-3-yl}imidazo[1,5-a]pyrazin-1-yl)-N-(5-fluoropyridin-2-yl)benzamide] was tested, and the IC50 was 10 to 100 nM.
In the case of `Cc1ccnc(NC(=O)c2ccc(-c3nc([C@@H]4CCCN(C(=O)C5(C)COC5)C4)n4ccnc(N)c34)cc2)c1` [Example 352, 4-(8-amino-3-{(3R)-1-[(3-methyloxetan-3-yl)carbonyl]piperidin-3-yl}imidazo[1,5-a]pyrazin-1-yl)-N-(4-methylpyridin-2-yl)benzamide], the IC50 is reported as under 10 nM.
`Cc1cc(NC(=O)c2ccc(-c3nc([C@@H]4CCCN(C(=O)C5(C)COC5)C4)n4ccnc(N)c34)cc2)no1` [Example 353, 4-(8-amino-3-{(3R)-1-[(3-methyloxetan-3-yl)carbonyl]piperidin-3-yl}imidazo[1,5-a]pyrazin-1-yl)-N-(5-methylisoxazol-3-yl)benzamide] was tested, and the IC50 was 100 to 1000 nM.
For `CC1(C(=O)N2CCC[C@@H](c3nc(-c4ccc(C(=O)Nc5cc(C6CCC6)ccn5)cc4)c4c(N)nccn34)C2)COC1` [Example 354, 4-(8-amino-3-{(3R)-1-[(3-methyloxetan-3-yl)carbonyl]piperidin-3-yl}imidazo[1,5-a]pyrazin-1-yl)-N-(4-cyclobutylpyridin-2-yl)benzamide], the IC50 was under 10 nM.
Compound `CC1(C(=O)N2CCC[C@@H](c3nc(-c4ccc(C(=O)Nc5ccc(C(F)F)cn5)cc4)c4c(N)nccn34)C2)COC1` [Example 355, 4-(8-amino-3-{(3R)-1-[(3-methyloxetan-3-yl)carbonyl]piperidin-3-yl}imidazo[1,5-a]pyrazin-1-yl)-N-[5-(difluoromethyl)pyridin-2-yl]benzamide] has an IC50 of under 10 nM.
For `Cc1ccc(NC(=O)c2ccc(-c3nc([C@@H]4CCCN(C(=O)C5(C)COC5)C4)n4ccnc(N)c34)cc2)nc1` [Example 356, 4-(8-amino-3-{(3R)-1-[(3-methyloxetan-3-yl)carbonyl]piperidin-3-yl}imidazo[1,5-a]pyrazin-1-yl)-N-(5-methylpyridin-2-yl)benzamide], the IC50 was under 10 nM.
For `CC1(C(=O)N2CCC[C@@H](c3nc(-c4ccc(C(=O)Nc5cccnn5)cc4)c4c(N)nccn34)C2)COC1` [Example 357, 4-(8-amino-3-{(3R)-1-[(3-methyloxetan-3-yl)carbonyl]piperidin-3-yl}imidazo[1,5-a]pyrazin-1-yl)-N-pyridazin-3-ylbenzamide], the IC50 was 100 to 1000 nM.
Compound `CC1(C(=O)N2CCC[C@@H](c3nc(-c4ccc(C(=O)Nc5ccc(Cl)cn5)cc4)c4c(N)nccn34)C2)COC1` [Example 358, 4-(8-amino-3-{(3R)-1-[(3-methyloxetan-3-yl)carbonyl]piperidin-3-yl}imidazo[1,5-a]pyrazin-1-yl)-N-(5-chloropyridin-2-yl)benzamide] has an IC50 of under 10 nM.
Work on `CC1(C(=O)N2CCC[C@@H](c3nc(-c4ccc(C(=O)Nc5ccc(C(F)(F)F)cn5)cc4)c4c(N)nccn34)C2)COC1` [Example 359, 4-(8-amino-3-{(3R)-1-[(3-methyloxetan-3-yl)carbonyl]piperidin-3-yl}imidazo[1,5-a]pyrazin-1-yl)-N-[5-(trifluoromethyl)pyridin-2-yl]benzamide] yielded an IC50 of 10 to 100 nM.

Same assay, conditions: Table D; Assay Method C (LANCE TR-FRET), 50 pM hBTK, 25 μM ATP; read-out: IC50 BTK activity value
For `C[C@H](O)C(=O)N1CCC[C@@H](c2nc(-c3ccc(C(=O)Nc4cc(C(F)(F)F)ccn4)cc3)c3c(N)nccn23)C1` [Example 345, 4-(8-amino-3-{(3R)-1-[(2S)-2-hydroxypropanoyl]piperidin-3-yl}imidazo[1,5-a]pyrazin-1-yl)-N-[4-(trifluoromethyl)pyridin-2-yl]benzamide], the IC50 was 0.472 nM.
`C[C@@H](O)C(=O)N1CCC[C@@H](c2nc(-c3ccc(C(=O)Nc4cc(C(F)(F)F)ccn4)cc3)c3c(N)nccn23)C1` [Example 346, 4-(8-amino-3-{(3R)-1-[(2R)-2-hydroxypropanoyl]piperidin-3-yl}imidazo[1,5-a]pyrazin-1-yl)-N-[4-(trifluoromethyl)pyridin-2-yl]benzamide] gave an IC50 of 0.219 nM.
With `CC1(C(=O)N2CCC[C@@H](c3nc(-c4ccc(C(=O)Nc5ccc(C(F)F)cn5)cc4)c4c(N)nccn34)C2)COC1` [Example 355, 4-(8-amino-3-{(3R)-1-[(3-methyloxetan-3-yl)carbonyl]piperidin-3-yl}imidazo[1,5-a]pyrazin-1-yl)-N-[5-(difluoromethyl)pyridin-2-yl]benzamide] the IC50 was 1.33 nM.
